Laboratory results taken from PMC7658073 (Clinical Pharmacokinetics, 2020).

Target: T1, UGT2B4 (Homo sapiens, UniProt P06133)
T1 sequence (P06133 24-528): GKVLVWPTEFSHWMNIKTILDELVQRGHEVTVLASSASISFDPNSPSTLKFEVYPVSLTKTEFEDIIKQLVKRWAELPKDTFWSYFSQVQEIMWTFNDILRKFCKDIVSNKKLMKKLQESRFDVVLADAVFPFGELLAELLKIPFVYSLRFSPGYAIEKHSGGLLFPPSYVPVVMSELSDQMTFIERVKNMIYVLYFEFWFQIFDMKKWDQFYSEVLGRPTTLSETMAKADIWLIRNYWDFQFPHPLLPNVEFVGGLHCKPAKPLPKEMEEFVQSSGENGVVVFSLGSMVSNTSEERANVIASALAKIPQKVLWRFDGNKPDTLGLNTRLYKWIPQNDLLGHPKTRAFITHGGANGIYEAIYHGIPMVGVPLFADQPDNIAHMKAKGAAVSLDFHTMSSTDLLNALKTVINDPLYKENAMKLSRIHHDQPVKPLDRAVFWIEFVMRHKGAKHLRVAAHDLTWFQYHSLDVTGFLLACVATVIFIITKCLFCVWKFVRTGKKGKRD
Experiment: Inhibitory potency towards UGT isoforms: UGT2B4
Type: in vitro ADME

IC50: > 50 µM
Compound: COC(=O)Nc1c(N)nc(-c2nn(Cc3ccccc3F)c3ncc(F)cc23)nc1N [Vericiguat]
